We go through 25 compounds from ChEMBL document CHEMBL1131673, “Potent and orally bioavailable noncysteine-containing inhibitors of protein farnesyltransferase” (Bioorg Med Chem Lett, 1999).

The IC50 is the concentration that gives 50% inhibition. Higher therefore signals lower potency. A word on the Tmax: it is the time at which the peak concentration occurs. A word on the AUC: it is concentration integrated over time. High values mean high exposure, low ones low exposure. By half-life is commonly meant how long it takes for the measured level to halve. Higher therefore signals slow loss. What is called bioavailability is the share of a dose that reaches the circulation, judged against a reference dose that is usually intravenous. Read a low bioavailability as poor availability. One may read the Cmax as the peak of the concentration-time curve.

Data set [1] has as its target Protein farnesyltransferase (Homo sapiens, UniProt P49354+P49356). As to the kind of experiment: In vitro inhibitory activity was evaluated against farnesyltransferase (FTase). It counts as protein-complex assay.
Data set [2] is described as follows: Tmax of compound determined in rat after iv administration at a dose of 10 mg/kg. Type of data set: ADME, organism-based. More on the design: dose 10 mg/kg, route intravenous. The note with it: in vivo.
The nature of data set [3]: Area under curve of compound from zero time to infinity determined in rat after iv administration at a dose of 10 mg/kg. The note with it: in vivo. It counts as ADME, organism-based. More on the design: time infinity, dose 10 mg/kg, route intravenous.
Data set [4] is described as follows: (§1) Half life of compound determined in rat after iv administration at a dose of 10 mg/kg. The note with it: in vivo. It counts as ADME, organism-based. More on the design: dose 10 mg/kg, route intravenous.
A short description of data set [5]: Area under curve of compound determined in rat after iv administration at a dose of 10 mg/kg. Type of data set: ADME, organism-based. More on the design: dose 10 mg/kg, route intravenous. The note with it: in vivo.
Data set [6] is described as follows: Tmax of compound determined in dog […] at a dose of 10 mg/kg. It counts as ADME, organism-based, Canis lupus familiaris. More on the design: dose 10 mg/kg, route intravenous. The note with it: in vivo.
Data set [7] can be described thus: Oral bioavailability of compound determined in mouse […] at a dose of 10 mg/kg. Type of data set: ADME, organism-based. As to conditions: in vivo.
The nature of data set [8]: Oral bioavailability of compound determined in dog […] at a dose of 10 mg/kg. It counts as ADME, organism-based, Canis lupus familiaris. The note with it: in vivo.
The nature of data set [9]: Area under curve of compound from zero time to infinity determined in dog […] at a dose of 10 mg/kg. Type of data set: ADME, organism-based, Canis lupus familiaris. More on the design: time infinity, dose 10 mg/kg, route intravenous. The note with it: in vivo.
A short description of data set [10]: Area under curve of compound determined in dog after iv administration at a dose of 10 mg/kg. Type of data set: ADME, organism-based, Canis lupus familiaris. As to conditions: in vivo. More on the design: dose 10 mg/kg, route intravenous.
The nature of data set [11]: as §1. It counts as ADME, organism-based. More on the design: dose 10 mg/kg, route intravenous. The note with it: in vivo. This is another data set of the same source.
Another data set relates to Rattus norvegicus. As to the kind of experiment: Maximum plasma drug concentration of compound determined in rat after iv administration at a dose of 10 mg/kg. The note with it: in vivo. More on the design: dose 10 mg/kg, route intravenous. Type of data set: ADME, organism-based.
For a further data set, the system named is Canis familiaris. As to the kind of experiment: Maximum plasma drug concentration of compound determined in dog […] at a dose of 10 mg/kg. More on the design: dose 10 mg/kg, route intravenous. Type of data set: ADME, organism-based, Canis lupus familiaris. The note with it: in vivo.
Data set [12] can be described thus: Oral bioavailability of compound determined in rat […] at a dose of 10 mg/kg. It counts as ADME, organism-based. The note with it: in vivo.

`CSCC[C@H](NC(=O)c1ccc(COc2ccccc2)cc1-c1ccccc1)C(=O)O`: the concentration for half-maximal inhibition (IC50) in data set [1] was over 1000 nM.

`CSCC[C@H](NC(=O)c1ccc(COCc2ccc(-c3ccc(Cl)cc3)o2)cc1-c1ccccc1C)C(=O)[O-].[Li+]`: the Tmax in [2] turned out to be 42 min; in data set [6] it was 24 min. The AUC in data set [3] amounted to 2390 ng·h/mL; in [5] it was 8100 ng·h/mL; in [9], 1040 ng·h/mL; in data set [10] it was 4940 ng·h/mL. Also, the half-life in data set [4] is 74.4 min; in [11] it was 78 min. This compound also showed a concentration for half-maximal inhibition (IC50) in data set [1] of 0.7 nM. For the same compound, the bioavailability in data set [7] is 32%; in data set [8], 21.1%; in data set [12] it was 30%. Besides, the peak concentration (Cmax) in the data set with Rattus norvegicus amounted to 1250 ng/mL; in the data set with Canis familiaris it was 713 ng/mL.

In data set [1], `CSCC[C@H](NC(=O)c1ccc(COCc2ccc(-c3ccccc3)o2)cc1-c1ccccc1C)C(=O)O` displayed a 50% inhibitory concentration (IC50) of 6 nM.

`CSCC[C@H](NC(=O)c1ccc(COCc2ccc(-c3ccc(N(C)C)cc3)o2)cc1-c1ccccc1C)C(=O)O` yielded an IC50 in data set [1] of 2.6 nM.

In data set [1], `CSCC[C@H](NC(=O)c1ccc(COCc2ccc(-c3ccccn3)o2)cc1-c1ccccc1C)C(=O)O` gave an IC50 of 19 nM.

In turn, `COc1ccc(-c2ccc(COCc3ccc(C(=O)N[C@@H](CCSC)C(=O)O)c(-c4ccccc4C)c3)o2)cc1` displayed an IC50 in data set [1] of 8.4 nM.

For the compound `CSCC[C@H](NC(=O)c1ccc(COCc2ccc(-c3ccccc3C(F)(F)F)o2)cc1-c1ccccc1C)C(=O)O`, in data set [1], the IC50 is 9.9 nM. This IC50 and that of the compound before are within 1.5-fold of each other.

`CSCC[C@H](NC(=O)c1ccc(COCc2ccc(-c3ccc(C=O)cc3)o2)cc1-c1ccccc1C)C(=O)O` gave an IC50 in [1] of 1.2 nM.

In data set [1], `CSCC[C@H](NC(=O)c1ccc(COCc2ccc(-c3ccc(Cl)c(F)c3)o2)cc1-c1ccccc1C)C(=O)O` had an IC50 of 4.9 nM.

In the case of `COc1ccccc1-c1ccc(COCc2ccc(C(=O)N[C@@H](CCSC)C(=O)O)c(-c3ccccc3C)c2)o1`, in data set [1], the IC50 turned out to be 20 nM.

For `CSCC[C@H](NC(=O)c1ccc(COCc2ccc(-c3ccc(C(F)(F)F)cc3)o2)cc1-c1ccccc1C)C(=O)O`, in data set [1], the IC50 is 3 nM.

Turning to `COc1cccc(-c2ccc(COCc3ccc(C(=O)N[C@@H](CCSC)C(=O)O)c(-c4ccccc4C)c3)o2)c1`, the midpoint of inhibition in data set [1], the IC50, lay at 12 nM.

On to `CSCC[C@H](NC(=O)c1ccc(COCc2ccc(-c3ccccc3F)o2)cc1-c1ccccc1C)C(=O)O`, for which it took 6.3 nM to reach half-maximal inhibition in data set [1] (IC50).

In the case of `COC(=O)[C@H](CCSC)NC(=O)c1ccc(COCc2ccc(Br)o2)cc1-c1ccccc1C`, the midpoint of inhibition in data set [1], the IC50, lay at 3 nM. Compared with the last compound, the IC50 is about 2.1-fold lower.

In [1], `CSCC[C@H](NC(=O)c1ccc(COCc2ccc(-c3ccc(SC)cc3)o2)cc1-c1ccccc1C)C(=O)O` registered a half-maximal inhibitory concentration (IC50) of 6.2 nM.

The compound `CSCC[C@H](NC(=O)c1ccc(COCc2ccc(-c3cccc(F)c3)o2)cc1-c1ccccc1C)C(=O)O` registered a concentration for half-maximal inhibition (IC50) in [1] of 7.6 nM.

For the compound `CSCC[C@H](NC(=O)c1ccc(COCc2ccc(-c3ccc(F)cc3)o2)cc1-c1ccccc1C)C(=O)O`, in [1], half-maximal inhibition (IC50) required 1.5 nM.

In the case of `CSCC[C@H](NC(=O)c1ccc(CNCc2ccco2)cc1-c1ccccc1)C(=O)O`, in data set [1], the IC50 came to 560 nM.

Turning to `CSCC[C@H](NC(=O)c1ccc(COCc2ccc(-c3ccc(C(C)=O)cc3)o2)cc1-c1ccccc1C)C(=O)O`, the half-maximal inhibitory concentration (IC50) in data set [1] is 6.6 nM.

Consider `CSCC[C@H](NC(=O)c1ccc(COCc2ccc(-c3ccc(C(C)C)cc3)o2)cc1-c1ccccc1C)C(=O)O`, for which inhibition in data set [1] was half-maximal at 2.9 nM (IC50). Compared with the last compound, the IC50 is about 2.3-fold lower.

Take `CSCC[C@H](NC(=O)c1ccc(COCc2ccc(-c3ccc(C)cc3)o2)cc1-c1ccccc1C)C(=O)O`: it took 2.9 nM to reach half-maximal inhibition in data set [1] (IC50).

In data set [1], `CSCC[C@H](NC(=O)c1ccc(COCc2ccc(-c3cccc([N+](=O)[O-])c3)o2)cc1-c1ccccc1C)C(=O)O` returned a 50% inhibitory concentration (IC50) of 6 nM.

`CSCC[C@H](NC(=O)c1ccc(COCc2ccc(-c3cccc(C(F)(F)F)c3)o2)cc1-c1ccccc1C)C(=O)O` showed an IC50 in data set [1] of 8.8 nM.

In turn, `CSCC[C@H](NC(=O)c1ccc(COCc2ccc(-c3cccnc3)o2)cc1-c1ccccc1C)C(=O)O` came in with a concentration for half-maximal inhibition (IC50) in [1] of 6.5 nM.

Turning to `CSCC[C@H](NC(=O)c1ccc(COCc2ccc(-c3ccncc3)o2)cc1-c1ccccc1C)C(=O)O`, the IC50 in [1] worked out at 2.4 nM.
